Test: gradient 5% acetonitrile 3 min, to 50% in 2 min, to 85% in 15 min, held 3 min, 100 µL/min
Conditions: column: Zorbax Extend-C18 2.1 x 50 mm; eluents: water / acetonitrile, 0.1% formic acid
How it was run: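 Retention time was recorded from adduct peaks, which were picked computationally and each inspected manually. Pure standards ran in mixtures of ~100 molecules on HPLC coupled to a quadrupole time-of-flight mass spectrometer, in positive and negative ionization mode, through a Zorbax Extend-C18 column (2.1 × 50 mm, 1.8 μm) at 100 μL/min. Eluents were water and acetonitrile, each with 0.1% formic acid.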

| Structure (SMILES) | RP-LC retention time [s] |
| --- | --- |
| Cc1nnc(-c2nnc(NCCC(C)C)c3ccccc23)o1 | 710 |
| CC(C)CNC(=O)c1nc2cccnc2n(C)c1=O | 701 |
| CN1CCN(c2nnc(SCC(=O)Nc3cccc(C(F)(F)F)c3)s2)CC1 | 560 |
| C=CCNC(=O)N1CCCN(C2=NS(=O)(=O)C(c3ccc(C)cc3)=C2C)CC1 | 732 |
| COc1ccccc1NC(=O)Cn1cnc2nc(N3CCCC(C(=O)NC(C)C)C3)sc2c1=O (centres undefined) | 688 |
| Cc1c(C(=O)N2CCCC(C)C2)cnn1-c1ccc(-c2nc(C(C)C)no2)cn1 (centres undefined) | 1120 |
| CCN1CCC(N(Cc2cccs2)C(=O)Nc2ccc(OC)c(OC)c2)CC1 | 604 |
| c1ccc(-c2nc3nc4c(c(Nc5ccc6c(c5)OCCO6)n3n2)CCC4)cc1 | 961 |
| COc1ccc2cc1Oc1ccc(cc1)CC1c3c(cc(OC)c4c3Oc3cc5c(cc3O4)CCNC5C2)CCN1C (centres undefined) | 601 |
| COc1ccc(CN2C[C@@H]3C(=O)N(CCCN4CCCC4=O)C(=O)[C@@H]3C2)cc1 | 589 |
| CC(C)c1noc(-c2ccc(-n3cnc(C(=O)NC4CCCCC4)c3)nc2)n1 | 741 |
| Cc1[nH]c2ccc(F)cc2c1CCNCc1ccccn1 | 572 |
| O=C(c1cnccn1)N1CCc2nn(CC3CC3)c(=O)n2CC1 | 598 |
| Cn1c(N2CCC(C(=O)N3CCN(c4ccccn4)CC3)CC2)cc(=O)n(C)c1=O | 578 |
| COc1nccnc1NC1CCN(C(=O)Cc2ccsc2)CC1 | 921 |
| Cn1c(C(=O)c2ccncc2)cc2ccccc21 | 881 |
| COc1ccc(-c2nc(-c3cccc(-c4ccn[nH]4)c3)no2)cc1F | 978 |
| COCCC1CCN(C(=O)COc2cccc(Cl)c2)CC1 | 855 |
| N#Cc1ccc(Cl)cc1NC(=O)c1ccc(N2CCOCC2)nn1 | 843 |

| Structure (SMILES) | RP-LC retention time [s] |
| --- | --- |
| COc1cc(OC)cc(-c2nc(-c3cn(-c4ccc(C)cc4)nn3)no2)c1 | 1140 |
| COc1ccc(Cc2nnc3sc(-c4cnccn4)nn23)cc1 | 730 |
| CC(C)NC(=O)CN1CCN(Cc2nc(-c3ccc(N4CCCC4)nc3)no2)CC1 | 541 |
| CCn1cnc2ccc(-c3noc(COc4ccc(Cl)cc4)n3)cc21 | 815 |
| COc1cc(-c2nc3cc(C)ccn3c2Nc2ccc(C)cc2)ccc1O | 686 |
| COc1ccc(-c2nc(-c3ccc4c(c3)oc(=O)n4C(C)C)no2)c(C)c1 | 1270 |
| CCn1c(-c2ccccc2)nc2ccccc21 | 623 |
| O=C(c1ccc(OCC2CCCN2C(=O)c2ccccc2F)cc1)N1CCCC1 (centres undefined) | 813 |
| CCCNc1cc(N2CCC(CCC(=O)NCc3c(C)nn(C)c3C)CC2)ncn1 | 594 |
| O=C(NCC1CC1)c1ccc2c(c1)nc1n2CCN(C2CCCCC2)C1=O | 706 |
| Cc1ccc(N2CC(C(=O)N3CCCC3)CC2=O)cc1 (centres undefined) | 640 |
| COc1ccc(-c2nc(NCCC3=CCCCC3)c3ccccc3n2)cc1 | 933 |
| COc1cccc(C(=O)c2oc3ccccc3c2NC(=O)c2ccccc2[N+](=O)[O-])c1 | 1080 |
| Clc1ccc(-c2nc(-c3ccc4nncn4c3)no2)cc1 | 896 |
| COC1CCC12CCN(C(=O)c1ocnc1C)CC2 (centres undefined) | 692 |
| O=C(NCc1n[nH]c(=O)c2ccccc12)C(=O)N1CCCCC1 | 603 |
| CCCn1c(C2CCN(C(=O)c3sccc3C)C2)nc2cccnc21 (centres undefined) | 716 |
| Cc1ccsc1C(=O)N1CCOc2ccc(N3CCOCC3)cc2C1 | 762 |
| Cc1ccsc1C(=O)Nc1cccn2c(C3CCC3)nnc12 | 805 |

Other lines, results leading:

| RP-LC retention time [s] | Structure (SMILES) |
| --- | --- |
| 832 | CCS(=O)(=O)N1CC(=O)N(c2ccc(F)cc2C)C(C)(C(=O)NCc2ccc(F)cc2)C1 (centres undefined) |
| 731 | CCCN(C)c1nccn2c(=O)n(CC(=O)Nc3ccc(F)c(Cl)c3)nc12 |
| 928 | O=C1CCCc2cc(S(=O)(=O)N3CCN(c4cccc(Cl)c4)CC3)ccc2N1 |
| 661 | COc1ccc(-c2cc3nn(CC(=O)Nc4ccccc4)c(=O)n3c(C)n2)cc1 |
| 767 | CCc1nc(-c2ccc(C(=O)N3CCN(C(=O)c4ccco4)CC3)cc2)cs1 |
| 743 | CCn1ccc(C(=O)NCc2c(-c3ccccc3)nc3sc(C)nn23)n1 |
| 782 | O=C(NCc1ccc(C(F)(F)F)cc1)c1ccc(-c2cncnc2)nc1 |
| 717 | Cc1ccc(-n2nc3c(=O)n(CCCC(=O)NC4CC4)nc(C)c3c2C)cc1 |
| 721 | COc1cc(NC(=O)Cn2c(N3CCc4ccccc4C3)nc(C)cc2=O)cc(OC)c1OC |
| 695 | Cc1ccc(NS(=O)(=O)c2cc(-c3[nH]ncc3C(=O)N3CCOCC3)oc2C)cc1F |
| 751 | COCCN1CCC2(CC1)CN(Cc1ccc(Cl)c(F)c1)Cc1ccccc1O2 |
| 580 | COc1ccc2[nH]c3c(c2c1)CCNC31CCN(Cc2ccc(F)cc2F)CC1 |
| 789 | COc1ccccc1NC(=O)C1CCN(S(=O)(=O)c2cc(C(=O)N(C)C)cs2)CC1 |
| 747 | CCn1c(=O)c2ccn(CC(=O)Nc3ccc(Cl)cc3)c2n(CC)c1=O |
| 1020 | COc1ccc(OC)c(CNC(=O)c2cc(-c3ccccc3)cn2C)c1 |
| 664 | COc1ccc(Cl)cc1S(=O)(=O)N1CC(c2nc(-c3ccncc3)nn2C)C1 |
| 1210 | COc1cccc(-n2c(=O)c(C(=O)Nc3cc(F)cc(F)c3)c(O)c3cccnc32)c1 |
| 823 | CCN1CCN(c2ccc(NC(=O)c3ccc(C(F)(F)F)cc3)cn2)C1=O |
| 740 | COc1ccc(CNc2c(C(=O)OC(C)C)cnc3nc(C)ccc23)cc1 |
| 908 | Cc1cc(C(=O)Nc2cccc3ccccc23)n(-c2ccccc2)n1 |
| 965 | Cc1ccc(CNC(=O)C2(C)CCN(S(=O)(=O)c3ccc(F)cc3)CC2)cc1 |
| 683 | COc1cc(C(=O)N2CCC(c3nc4cccnc4n3C)C2)ccc1C (centres undefined) |
| 644 | Cc1ccc(CNC(=O)C2CCCCC(=O)N2C)o1 (centres undefined) |
| 731 | CC(C)C(=O)Nc1ccc(CCc2nc3ccc(C(=O)NCCC4=CCCCC4)cc3[nH]2)cc1 |
| 836 | Cc1ccc(CN2CCN(CC(=O)Nc3ccc(Cl)cc3)C(=O)C2=O)cc1 |
| 551 | Cc1ccn2cc(C(=O)NCCc3ccc(S(N)(=O)=O)cc3)nc2c1 |

| RP-LC retention time [s] | Structure (SMILES) |
| --- | --- |
| 661 | CCCNC(=O)N1CCN(Cc2nc(-c3ccc(OCC)cc3)oc2C)CC1 |
| 610 | CCOC(=O)c1[nH]c2ccc(OC)cc2c1NC(=S)N1CCN(c2ccccn2)CC1 |
| 791 | CN1C(=O)c2cc(C(=O)Nc3cccc(F)c3)nn2CC1(C)C(=O)NC1CCCCCC1 (centres undefined) |
| 959 | CCN(CC)S(=O)(=O)c1ccc2c(c1)N(CC(=O)NCc1ccc(C)o1)C(=O)C1CCCCN21 (centres undefined) |
| 618 | COCCCNC(=O)Cc1c(C)n(C)c2nc(-c3ccccc3)nn2c1=O |
| 726 | COc1ccc(N2C=C(C(=O)N3CCCC3)S(=O)(=O)c3ccccc32)cc1OC |
| 729 | COc1ccc(-c2nc3cc(C)ccn3c2NC(=O)c2cccc(C(F)(F)F)c2)cc1OC |
| 749 | O=C(NCC1CCCO1)C(=O)NCC(c1cccs1)S(=O)(=O)c1ccc(F)cc1 (centres undefined) |
| 1080 | Cc1cc2nn(CC(=O)Nc3ccc(F)cc3F)c(=O)n2c(Nc2ccc(C)c(F)c2)n1 |
| 585 | COc1cc(C(C)=O)ccc1OCC(O)CN1CCN(c2ccc(C)c(Cl)c2)CC1 (centres undefined) |
| 848 | Cc1ccc(NC(=O)Cn2c(=O)n(-c3ccccc3)c3ncccc32)c(C)c1 |
| 980 | CCn1cc(-c2nc(C)c(C(=O)Nc3ccccc3C)s2)c2cccnc21 |
| 604 | CN(C)c1ccc(CCCNC(=O)Cc2ccc(Cl)cc2)cc1 |
| 602 | CC1=C(c2ccc(F)cc2)S(=O)(=O)N=C1N1CCCN(C(=O)NC(C)(C)C)CC1 |
| 794 | COC(=O)C(C)NC(=O)NCc1cccn1Cc1ccccc1 (centres undefined) |
| 835 | CCOC(=O)c1c(S(=O)(=O)N2CCC(C(=O)NCc3ccc(F)cc3)CC2)c(C)n(CC)c1C |
| 1180 | COc1ccc(NC(=O)Cn2nc(N3CCSCC3)c3ccccc3c2=O)cc1 |
| 601 | CC(=O)c1cccc(NC(=O)Cn2nc3c(cc2=O)CN(C(C)=O)CC3)c1 |
| 802 | O=C(NCc1ccc(Cl)cc1)C1CCN(C(=O)c2ncn3c2COC(c2ccccc2)C3)CC1 (centres undefined) |
| 660 | Cc1ccc(C)c(S(=O)(=O)Nc2ccc(N3CCN(c4ccccn4)CC3)c(C(=O)O)c2)c1 |
| 936 | CCc1ccc(N2C=C(C(=O)N3CCOCC3)S(=O)(=O)c3ccc(Cl)cc32)cc1 |
| 767 | COc1ccc(CCC(=O)NC2CCN(c3nnc4ccc(C(F)(F)F)cn34)CC2)cc1 |
| 734 | CCCC(=O)Nc1ccc(CCc2nc3ccc(C(=O)NCCC4=CCCCC4)cc3[nH]2)cc1 |
| 781 | COc1ccc(NC(=O)COc2cc(C)nc(N3CCN(c4ccccc4)CC3)n2)cc1 |
| 764 | CCOC(=O)c1cnc2nc(C)ccc2c1Nc1cccc(Cl)c1F |

From the METLIN SMRT retention time set (Domingo-Almenara et al. 2019)
